The source made the active and inactive calls. The rule behind the calls is not given here.
Key:
[1] = molecular target: T1, Cannabinoid receptor 2 (Homo sapiens, UniProt P34972); experiment: Agonist activity at human CB2 expressed in mouse AtT20 cells assessed as activation of G-protein gated inwardly rectifying K+ channels measured every 2 sec for 2 mins by FLIPR membrane potential assay; type: cell-based
[2] = molecular target: T2, Cannabinoid receptor 1 (Homo sapiens, UniProt P21554); experiment: Agonist activity at human CB1 expressed in mouse AtT20 cells assessed as activation of G-protein gated inwardly rectifying K+ channels at 10 uM measured every 2 sec for 2 mins by FLIPR membrane potential assay; type: cell-based; conditions: att20, 2 min
[3] = molecular target: T1, Cannabinoid receptor 2; experiment: Agonist activity at human CB2 expressed in mouse AtT20 cells assessed as activation of G-protein gated inwardly rectifying K+ channels at 10 uM measured every 2 sec for 2 mins by FLIPR membrane potential assay; type: cell-based
[4] = molecular target: T1, Cannabinoid receptor 2; experiment: Agonist activity at human CB2 expressed in mouse AtT20 cells assessed as maximal activation of G-protein gated inwardly rectifying K+ channels measured every 2 sec for 2 mins by FLIPR membrane potential assay relative to control; type: cell-based; conditions: filed as agonist
[5] = molecular target: T1, Cannabinoid receptor 2; experiment: Agonist activity at human CB2 expressed in mouse AtT20 cells assessed as activation of G-protein gated inwardly rectifying K+ channels at 10 uM measured every 2 sec for 2 mins by FLIPR membrane potential assay relative to control; type: cell-based; conditions: filed as agonist
[6] = molecular target: T2, Cannabinoid receptor 1; experiment: Displacement of [3H]-CP55940 from human CB1 expressed in CHO cell membrane incubated for 3 hrs by microbeta scintillation counting method; type: cell membranes
[7] = molecular target: T1, Cannabinoid receptor 2; experiment: Displacement of [3H]-CP55940 from human CB2 expressed in CHO cell membrane incubated for 3 hrs by microbeta scintillation counting method; type: cell membranes
[8] = molecular target: T2, Cannabinoid receptor 1; experiment: Agonist activity at CB1 (unknown origin)
[9] = molecular target: T1, Cannabinoid receptor 2; experiment: Agonist activity at CB2 (unknown origin)

T2 sequence (P21554 whole entry): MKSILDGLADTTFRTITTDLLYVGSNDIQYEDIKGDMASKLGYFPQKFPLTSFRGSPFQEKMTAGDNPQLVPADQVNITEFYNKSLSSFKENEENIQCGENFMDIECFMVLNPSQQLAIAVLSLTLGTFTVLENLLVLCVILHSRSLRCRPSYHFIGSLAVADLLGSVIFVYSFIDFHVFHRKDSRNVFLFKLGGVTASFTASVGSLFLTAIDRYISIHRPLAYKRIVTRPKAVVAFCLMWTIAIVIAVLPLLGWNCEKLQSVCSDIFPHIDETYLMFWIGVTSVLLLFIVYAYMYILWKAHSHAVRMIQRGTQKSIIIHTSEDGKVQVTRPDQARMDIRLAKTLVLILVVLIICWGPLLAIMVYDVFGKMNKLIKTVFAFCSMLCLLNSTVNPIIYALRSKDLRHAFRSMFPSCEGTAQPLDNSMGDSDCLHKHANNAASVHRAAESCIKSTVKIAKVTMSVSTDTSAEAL
T1 sequence (P34972 whole entry): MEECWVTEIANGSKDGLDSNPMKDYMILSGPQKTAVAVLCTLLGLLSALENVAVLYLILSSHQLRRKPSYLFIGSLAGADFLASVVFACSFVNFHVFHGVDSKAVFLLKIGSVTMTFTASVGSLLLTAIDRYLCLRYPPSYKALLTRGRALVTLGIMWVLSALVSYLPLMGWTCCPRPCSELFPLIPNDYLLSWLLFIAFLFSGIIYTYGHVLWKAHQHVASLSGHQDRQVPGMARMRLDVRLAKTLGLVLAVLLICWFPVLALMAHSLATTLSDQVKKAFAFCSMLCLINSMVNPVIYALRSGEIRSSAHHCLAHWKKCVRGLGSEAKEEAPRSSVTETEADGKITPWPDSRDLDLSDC

| Compound | pEC50 [1] | Activity [2] [%] | Activity [3] [%] | other results |
| --- | --- | --- | --- | --- |
| CC(C)(O)COc1ccc(C(F)(F)F)cc1Nc1cc(C(C)(C)C)nn1C[C@H]1CCCO1 | inactive | < 50 | < 50 |  |
| CC(C)(O)COc1ccc(C(F)(F)F)cc1-c1ccc2c(C(C)(C)C)nn(C[C@H]3CCCO3)c2c1 |  | < 50 |  | EC50 ([1]; read-out: EC50): 673 nM; Emax [4]: 104% |
| CC(C)(O)COc1ccc(C(F)(F)F)cc1C(=S)Nc1cc(C(C)(C)C)nn1C[C@H]1CCCO1 |  | < 50 |  | Activity [5]: 51% |
| CC(C)(O)COc1ccc(C(F)(F)F)cc1CCc1cc(C(C)(C)C)nn1C[C@H]1CCCO1 | inactive | < 50 | < 50 |  |
| CC(C)(O)COc1ccc(C(F)(F)F)cc1-c1ncc2c(C(C)(C)C)nn(C[C@H]3CCCO3)c2n1 |  | < 50 |  | EC50 ([1]; read-out: EC50): 41 nM; Emax [4]: 106% |
| CC(C)(O)COc1ccc(C(F)(F)F)cc1-c1ccc(-c2cc(C(C)(C)C)nn2C[C@H]2CCCO2)o1 | inactive | < 50 | < 50 |  |
| CC(C)(O)COc1ccc(C(F)(F)F)cc1-c1cc(C(C)(C)C)nn1C[C@H]1CCCO1 | inactive | < 50 | < 50 |  |
| CC(C)(O)COc1ccc(C(F)(F)F)cc1/C=C/c1cc(C(C)(C)C)nn1C[C@H]1CCCO1 |  | < 50 |  | Activity [5]: 54% |
| CC(C)(O)COc1ccc(C(F)(F)F)cc1NC(=O)c1cc(C(C)(C)C)nn1C[C@H]1CCCO1 |  | < 50 |  | EC50 ([1]; read-out: EC50): 6760 nM; EC50 ([1]; read-out: pEC50 (converted)): 5250 nM; Emax [4]: 106% |
| CC(C)(O)COc1ccc(C(F)(F)F)cc1CNc1cc(C(C)(C)C)nn1C[C@H]1CCCO1 | inactive | < 50 | < 50 |  |
| CC(C)(O)COc1ccc(C(F)(F)F)cc1C(=O)Nc1cc(C(C)(C)C)nn1C[C@H]1CCCO1 |  |  |  | Ki [6]: > 10000 nM; Ki [7]: > 10000 nM |
| CN(C(=O)c1cc(C(F)(F)F)ccc1OCC(C)(C)O)c1cc(C(C)(C)C)nn1C[C@H]1CCCO1 | inactive | < 50 | < 50 |  |
| CC(C)(O)COc1ccc(C(F)(F)F)cc1-c1cn(-c2cc(C(C)(C)C)nn2C[C@H]2CCCO2)nn1 | inactive | < 50 | < 50 |  |
| Cn1c(C(C)(C)C)c/c(=N\C(=O)c2cc(C(F)(F)F)ccc2OCC(C)(C)O)n1C[C@H]1CCCO1 |  |  |  | EC50 [8]: > 10000 nM; EC50 [9]: 19 nM; Ki [6]: > 10000 nM; Ki [7]: 5.9 nM |
| CC(C)(O)COc1ccc(C(F)(F)F)cc1C(=O)Oc1cc(C(C)(C)C)nn1C[C@H]1CCCO1 |  | < 50 |  | EC50 ([1]; read-out: EC50): 1280 nM; Emax [4]: 106% |
| CC(C)(O)COc1ccc(C(F)(F)F)cc1NC(=O)Nc1cc(C(C)(C)C)nn1C[C@H]1CCCO1 |  | < 50 |  | Activity [5]: 54% |
| CC(C)(O)COc1ccc(C(F)(F)F)cc1S(=O)(=O)Nc1cc(C(C)(C)C)nn1C[C@H]1CCCO1 | inactive | < 50 | < 50 |  |
| CC(C)(O)COc1ccc(C(F)(F)F)cc1C#Cc1cc(C(C)(C)C)nn1C[C@H]1CCCO1 |  | < 50 |  | Activity [5]: 62% |
| CC(C)(O)COc1ccc(C(F)(F)F)cc1-c1nnc2c(C(C)(C)C)nn(C[C@H]3CCCO3)c2n1 |  | < 50 |  | EC50 ([1]; read-out: EC50): 19 nM; Emax [4]: 115%; Ki [6]: > 10000 nM; Ki [7]: 17 nM |
